For 49 compounds, melting point results are on record in patent publication US7964531B2, “3-phenoxy-4-pyridazinol derivatives and herbicidal composition containing the same” (Mitsui Chemicals Agro, Inc., priority 2001, dated 2011).

In turn, `N#Cc1cccc(Oc2nnc(Cl)cc2O)c1` [Compound No. 420, 3-[(6-Chloro-4-hydroxy-3-pyridazinyl)oxy]benzonitrile] showed a melting point of 226 to 229 °C. `O=Cc1cccc(Oc2nnc(Cl)cc2O)c1` [Compound No. 421, 3-[(6-Chloro-4-hydroxy-3-pyridazinyl)oxy]benzaldehyde] showed a melting point of 188 to 192 °C. In turn, `CC(=O)c1cccc(Oc2nnc(Cl)cc2O)c1` [Compound No. 422, 1-{3-[(6-Chloro-4-hydroxy-3-pyridazinyl)oxy]phenyl}ethanone] showed a melting point of 195 to 198 °C. As for `O=[N+]([O-])c1cccc(Oc2nnc(Cl)cc2O)c1` [Compound No. 424, 6-Chloro-3-(3-nitrophenoxy)-4-pyridazinol], the melting point lay in the range of 217 to 219 °C. The same measure for `COc1cccc(Oc2nnc(Cl)cc2O)c1` [Compound No. 425, 6-Chloro-3-(3-methoxyphenoxy)-4-pyridazinol]: 199 to 203 °C. The same measure for `Oc1cc(Cl)nnc1Oc1ccc(F)cc1` [Compound No. 426, 6-Chloro-3-(4-fluorophenoxy)-4-pyridazinol]: 241 to 248 °C; for `Oc1cc(Cl)nnc1Oc1ccc(Cl)cc1` [Compound No. 427, 6-Chloro-3-(4-chlorophenoxy)-4-pyridazinol]: 226 to 231 °C; for `Cc1ccc(Oc2nnc(Cl)cc2O)cc1` [Compound No. 430, 6-Chloro-3-(4-methylphenoxy)-4-pyridazinol]: 261 to 263 °C. The compound `CC(C)c1ccc(Oc2nnc(Cl)cc2O)cc1` [Compound No. 432, 6-Chloro-3-(4-isopropylphenoxy)-4-pyridazinol] yielded a melting point of 233 to 235 °C. For the compound `CC(C)(C)c1ccc(Oc2nnc(Cl)cc2O)cc1` [Compound No. 433, 3-(4-tert-Butylphenoxy)-6-chloro-4-pyridazinol], the melting point was in the range of 224 to 225 °C. `Oc1cc(Cl)nnc1Oc1ccc(C2CC2)cc1` [Compound No. 434, 6-Chloro-3-(4-cyclopropylphenoxy)-4-pyridazinol] registered a melting point of 221 to 227 °C. Then `COc1ccc(Oc2nnc(Cl)cc2O)cc1` [Compound No. 435, 6-Chloro-3-(4-methoxyphenoxy)-4-pyridazinol], with 260 to 263.5 °C. As to `Oc1cc(Cl)nnc1Oc1cccc(F)c1F` [Compound No. 437, 6-Chloro-3-(2,3-difluorophenoxy)-4-pyridazinol], the melting point was 188 to 193 °C.

`Oc1cc(Cl)nnc1Oc1cccc(Cl)c1F` [Compound No. 438, 6-Chloro-3-(3-chloro-2-fluorophenoxy)-4-pyridazinol] showed a melting point of 187 to 195 °C.

On to `Oc1cc(Cl)nnc1Oc1cccc(C(F)(F)F)c1F` [Compound No. 441, 6-Chloro-3-[2-fluoro-3-(trifluoromethyl)phenoxy]-4-pyridazinol], for which the melting point was 185 to 189 °C. In turn, `Oc1cc(Cl)nnc1Oc1cccc(Cl)c1Cl` [Compound No. 443, 6-Chloro-3-(2,3-dichlorophenoxy)-4-pyridazinol] had a melting point of 233 to 238 °C. `Oc1cc(Cl)nnc1Oc1cccc(C(F)(F)F)c1Cl` [Compound No. 446, 6-Chloro-3-[2-chloro-3-(trifluoromethyl)phenoxy]-4-pyridazinol]: the melting point lay in the range of 170 to 200 °C. As to `Cc1cccc(Oc2nnc(Cl)cc2O)c1Br` [Compound No. 450, 3-(2-Bromo-3-methylphenoxy)-6-chloro-4-pyridazinol], the melting point lay within 140 to 141 °C. On to `Cc1c(F)cccc1Oc1nnc(Cl)cc1O` [Compound No. 453, 6-Chloro-3-(3-fluoro-2-methylphenoxy)-4-pyridazinol], for which the melting point lay in the range of 242 to 244 °C. Regarding `Cc1c(Cl)cccc1Oc1nnc(Cl)cc1O` [Compound No. 454, 6-Chloro-3-(3-chloro-2-methylphenoxy)-4-pyridazinol], the melting point lay in the range of 250 to 252 °C. For `Cc1cccc(Oc2nnc(Cl)cc2O)c1C` [Compound No. 456, 6-Chloro-3-(2,3-dimethylphenoxy)-4-pyridazinol], the melting point was in the range of 240 to 241 °C. `Cc1c(Oc2nnc(Cl)cc2O)cccc1[N+](=O)[O-]` [Compound No. 458, 6-Chloro-3-(2-methyl-3-nitrophenoxy)-4-pyridazinol] returned a melting point of 241 to 244 °C. Take `COc1cccc(Oc2nnc(Cl)cc2O)c1C` [Compound No. 459, 6-Chloro-3-(3-methoxy-2-methylphenoxy)-4-pyridazinol]: the melting point lay within 224 to 237 °C. Then `Cc1cccc(Oc2nnc(Cl)cc2O)c1C1CC1` [Compound No. 472, 6-Chloro-3-(2-cyclopropyl-3-methylphenoxy)-4-pyridazinol], with 197 to 198 °C. In turn, `COc1cccc(Oc2nnc(Cl)cc2O)c1C1CC1` [Compound No. 478, 6-Chloro-3-(2-cyclopropyl-3-methoxyphenoxy)-4-pyridazinol] showed a melting point of 184 to 185 °C. The same measure for `Cc1cccc(Oc2nnc(Cl)cc2O)c1[N+](=O)[O-]` [Compound No. 498, 6-Chloro-3-(3-methyl-2-nitrophenoxy)-4-pyridazinol]: 191 to 200 °C; for `COc1cccc(Oc2nnc(Cl)cc2O)c1OC` [Compound No. 503, 6-Chloro-3-(2,3-dimethoxyphenoxy)-4-pyridazinol]: 199 to 201 °C; for `Oc1cc(Cl)nnc1Oc1cccc2c1CC2` [Compound No. 505, 3-(Bicyclo[4.2.0]octa-1,3,5-trien-2-yloxy)-6-chloro-4-pyridazinol]: 145 to 155 °C. Regarding `Oc1cc(Cl)nnc1Oc1cccc2c1CCC2` [Compound No. 506, 6-Chloro-3-(2,3-dihydro-1H-inden-4-yloxy)-4-pyridazinol], the melting point is 230 to 232 °C. Then `CC1CCc2c(Oc3nnc(Cl)cc3O)cccc21` (stereo not shown) [Compound No. 510, 6-Chloro-3-[(1-methyl-2,3-dihydro-1H-inden-4-yl)oxy]-4-pyridazinol], with 228 to 230 °C; and `CC1(C)Cc2cccc(Oc3nnc(Cl)cc3O)c2C1` [Compound No. 513, 6-Chloro-3-[(2,2-dimethyl-2,3-dihydro-1H-inden-4-yl)oxy]-4-pyridazinol], with 220 to 223 °C.

With `Oc1cc(Cl)nnc1Oc1cccc2c1C1CC1C2` (stereo not shown) [Compound No. 515, 3-(1,1a,6,6a-Tetrahydrocyclopropa[a]inden-2-yloxy)-6-chloro-4-pyridazinol], the melting point was in the range of 245 to 247 °C. Turning to `Oc1cc(Cl)nnc1Oc1cccc2c1CC1CC21` (stereo not shown) [Compound No. 516, 3-(1,1a,6,6a-Tetrahydrocyclopropa[a]inden-5-yloxy)-6-chloro-4-pyridazinol], the melting point fell in the range of 211 to 213 °C. For `Oc1cc(Cl)nnc1Oc1cccc2c1CCCC2` [Compound No. 521, 6-Chloro-3-(5,6,7,8-tetrahydro-1-naphthalenyloxy)-4-pyridazinol], the melting point fell in the range of 232 to 237 °C. The compound `Oc1cc(Cl)nnc1Oc1cccc2ccccc12` [Compound No. 527, 6-Chloro-3-(1-naphthyloxy)-4-pyridazinol] displayed a melting point of 243 to 245 °C.

`Oc1cc(Cl)nnc1Oc1cccc2c1CCO2` [Compound No. 528, 6-Chloro-3-(2,3-dihydro-1-benzofuran-4-yloxy)-4-pyridazinol] gave a melting point of 219 to 221 °C. The same measure for `CC1COc2cccc(Oc3nnc(Cl)cc3O)c21` (stereo not shown) [Compound No. 529, 6-Chloro-3-[(3-methyl-2,3-dihydro-1-benzofuran-4-yl)oxy]-4-pyridazinol]: 238 to 245 °C; for `Oc1cc(Cl)nnc1Oc1cccc2occc12` [Compound No. 531, 3-(1-benzofuran-4-yloxy)-6-chloro-4-pyridazinol]: 220 to 225 °C. For `Cc1coc2cccc(Oc3nnc(Cl)cc3O)c12` [Compound No. 532, 6-Chloro-3-[(3-methyl-1-benzofuran-4-yl)oxy]-4-pyridazinol], the melting point lay in the range of 218 to 225 °C.

`Oc1cc(Cl)nnc1Oc1cccc2sccc12` [Compound No. 534, 3-(1-Benzothien-4-yloxy)-6-chloro-4-pyridazinol] gave a melting point of 181 to 183 °C. Then `Cc1nc2c(Oc3nnc(Cl)cc3O)cccc2o1` [Compound No. 538, 6-Chloro-3-[(2-methyl-1,3-benzoxazol-4-yl)oxy]-4-pyridazinol], with 221 to 222 °C; and `CC1(C)Cc2cccc(Oc3nnc(Cl)cc3O)c2O1` [Compound No. 540, 6-Chloro-3-[(2,2-dimethyl-2,3-dihydro-1-benzofuran-7-yl)oxy]-4-pyridazinol], with 228 to 229.5 °C; and `Oc1cc(Cl)nnc1Oc1cccc2ccoc12` [Compound No. 541, 3-(1-Benzofuran-7-yloxy)-6-chloro-4-pyridazinol], with 201 to 202 °C. Regarding `Oc1cc(Cl)nnc1Oc1cccc2c1OCO2` [Compound No. 544, 3-(1,3-Benzodioxol-4-yloxy)-6-chloro-4-pyridazinol], the melting point is 206 to 211 °C. With `Cc1nc2cccc(Oc3nnc(Cl)cc3O)c2o1` [Compound No. 549, 6-Chloro-3-[(2-methyl-1,3-benzoxazol-7-yl)oxy]-4-pyridazinol], the melting point was 197 to 202 °C. The same measure for `Oc1cc(Cl)nnc1Oc1ccc(Cl)cc1Cl` [Compound No. 552, 6-Chloro-3-(2,4-dichlorophenoxy)-4-pyridazinol]: 233 to 237 °C; for `Cc1cc(F)ccc1Oc1nnc(Cl)cc1O` [Compound No. 557, 6-Chloro-3-(4-fluoro-2-methylphenoxy)-4-pyridazinol]: 249 to 250 °C.

`Cc1cc(Cl)ccc1Oc1nnc(Cl)cc1O` [Compound No. 558, 6-Chloro-3-(4-chloro-2-methylphenoxy)-4-pyridazinol]: the melting point lay in the range of 235 to 235.5 °C. `CCc1cc(I)ccc1Oc1nnc(Cl)cc1O` [Compound No. 562, 6-Chloro-3-(2-ethyl-4-iodophenoxy)-4-pyridazinol] yielded a melting point of 199 to 201 °C.
